US20140341846A1, “METHODS OF INHIBITING PHOTORECEPTOR APOPTOSIS” (The Regents of The University of Michigan, priority 2009, published 2014)
“Also recorded” adds a separate entry of the source.

Assays:
[1] = tested on: caspase 3; experiment: Caspase 3 activity in detached retinas (Met study); type: in vivo, Brown Norway rats; details: 50 μg subretinal
Procedure: (§1) Retinal-RPE separation was created in Brown Norway rats by subretinal injection of 1% hyaluronic acid. Met12, derived from the Fas-binding extracellular domain of the oncoprotein Met, was injected into the subretinal space at the time of separation. […] Extrinsic apoptotic pathway was induced in 661W cells using a Fas-activating antibody in the presence or absence of Met12. Caspase 3, caspase 8, and caspase 9 activities were measured with calorimetric and luminescent assays in retinal extracts and cell lysates. Terminal deoxynucleotidyl transferase dUTP nick-end labeling (TUNEL) was performed in retinal sections 3 days after separation. Histology was performed in retinal sections 2 months after retinal detachment.
(§2) Rodents were anesthetized with a 50:50 mix of ketamine (100 mg/mL) and xylazine (20 mg/mL), and pupils were dilated with topical phenylephrine (2.5%) and tropicamide (1%). A 20-gauge microvitreoretinal blade (Walcott Scientific, Marmora, N.J.) was used to create a sclerotomy 2 mm posterior to the limbus, carefully avoiding lens damage. […]
(§3) Caspase 3, caspase 8 and caspase 9 activities were measured with colorimetric tetrapeptide cleavage assay kits, per the manufacturer's instructions (Bio-Vision, Mountain View, Calif.). […] Absorbance was measured at 405 nm in a microplate reader (Spectra-MAX 190, Molecular Devices, Sunnyvale, Calif.). […]

[2] = tested on: Fas-mediated caspase 8 activation in 661W cells; experiment: Fas-Ab induced caspase 8 activity in 661W cells; type: cell-based; details: 500 ng/ml Fas-Ab, 48 hours after treatment
Procedure: The 661W cell line was maintained in Dulbecco's modified Eagle's medium containing 10% fetal bovine serum, 300 mg/L glutamine, 32 mg/L putrescine, 40 μL/L of β-mercaptoethanol, and 40 μg/L of both hydrocortisone 21-hemisuccinate and progesterone. The media also contained penicillin (90 units/ml) and streptomycin (0.09 mg/ml). Cells were grown at 37° C. in a humidified atmosphere of 5% CO2 and 95% air.
In cell culture experiments, caspase 8 activity was measured by a commercially available luminescent tetrapeptide (LETD) cleavage assay kit (Promega, Madison, Wis.). The 661W cells were seeded in 96-well plates (Nunc, Rochester, N.Y.) at 1500 cells/well for 24 hours prior to treatment. Cells were pre-treated with various concentrations of Met12, mMet, or vehicle for 1 hour prior to treatment with 500 ng/ml of Fas-agonistic Jo2 monoclonal antibody (BD Biosciences, San Jose, Calif.). Caspase 8 activity was measured at various time points by incubating the cells with the pro-luminescent substrate in 96-well plates following manufacturer's instructions. Controls included untreated cells and wells with no cells. Luminescence was measured in a plate reader luminometer (Turner Biosystems, Sunnyvale Calif.).

[3] = tested on: caspase 8; experiment: Caspase 8 activity in detached retinas (Met study); type: in vivo, Brown Norway rats; details: 50 μg subretinal at time of detachment; 24 hours after detachment
Procedure: as §1, §2, §3

[4] = tested on: caspase 9; experiment: Caspase 9 activity in detached retinas (Met study); type: in vivo, Brown Norway rats; details: 50 μg subretinal
Procedure: as §1, §2, §3

[5] = tested on: photoreceptors (outer nuclear layer); experiment: ONL cell counts and thickness 2 months after retinal detachment (Met study); type: in vivo, Brown Norway rats; details: 50 μg subretinal at time of detachment; after 2 months of retinal detachment
Procedure: as §1
(§4) Rodents were anesthetized with a 50:50 mix of ketamine (100 mg/mL) and xylazine (20 mg/mL), and pupils were dilated with topical phenylephrine (2.5%) and tropicamide (1%). […]
(§5) Photoreceptor cell apoptosis was quantified as the percentage of total cells in the outer nuclear layer (ONL) that were TUNEL positive. […] The total number of cells in the ONL was measured in a similar fashion. The total thickness of the retina (measured from the outer edge of the ONL to the inner limiting membrane) was measured in three places in each of three non-overlapping high power fields (40×) at the maximal height of the retinal detachment per section and averaged for each eye. […]

[6] = tested on: Jurkat cells; details: Jurkat cells (Zou et al. Nat Med. 2007); cited from earlier work
[7] = tested on: photoreceptors (outer nuclear layer); experiment: TUNEL staining 3 days after retinal detachment (Met study); type: in vivo, Brown Norway rats; details: 50 μg subretinal
Procedure: as §1, §4, §5

Row | reduction of caspase 3 activity in detached retinas ([1]; after 24 hours) | reduction of caspase 8 activity in detached retinas [3] | fewer TUNEL-positive photoreceptors as compared with mMet-injected separated retinas [7] [%] | reduction of caspase 9 activity in detached retinas ([4]; after 24 hours) | Sequence | effect on caspase 3 activity level in detached retinas ([1]; 24 hours after detachment) | effect on Fas-Ab induced caspase 8 activation [2] | caspase 8 activity in detached retinas compared to attached retinas [3] | effect on caspase 9 activity level in detached retinas ([4]; 24 hours after detachment) | increase in ONL cell counts compared with mMet-injected retinas [5] [%] | increase in ONL thickness measurements compared with mMet-injected retinas [5] [%] | protection from FasL induced apoptosis [6]
1 | – | – | – | – | HHGSDHERNYIY [mMet, reference compound] | did not affect | no effect | significantly increased | did not affect | – | – | –
2 | approximately 50% | approximately 50% | ~77 | approximately 50% | HHIYLGAVNYIY [Met12] | – | inhibited by Met12 treatment in a dose dependent manner; also recorded: full inhibition | – | – | 37 | 27 | protects
